Measured values published in US10758534B2 (Vertex Pharmaceuticals Incorporated, priority 2014, dated 2020).

Biological target: T1, F508del (Homo sapiens, UniProt P13569, DEL508-508)
T1 construct: expressed in transfected cells
Assay: Protocol 1: membrane potential optical assay (FLIPR III, voltage sensing dye), identification of potentiator compounds
Type: cell-based
Conditions: Table 3, compounds of Table 1
Procedure, shortened: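 NIH 3T3 fibroblasts stably expressing F508del were cultured at 27° C for 24 hrs for temperature correction, then treated with compounds or DMSO and loaded with a voltage-sensing redistribution dye. Forskolin added with a Cl⁻ gradient activated the channel; membrane-potential fluorescence on FLIPR III reported increased gating.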

T1 sequence (P13569 with tags, fused parts or gaps DEL508-508): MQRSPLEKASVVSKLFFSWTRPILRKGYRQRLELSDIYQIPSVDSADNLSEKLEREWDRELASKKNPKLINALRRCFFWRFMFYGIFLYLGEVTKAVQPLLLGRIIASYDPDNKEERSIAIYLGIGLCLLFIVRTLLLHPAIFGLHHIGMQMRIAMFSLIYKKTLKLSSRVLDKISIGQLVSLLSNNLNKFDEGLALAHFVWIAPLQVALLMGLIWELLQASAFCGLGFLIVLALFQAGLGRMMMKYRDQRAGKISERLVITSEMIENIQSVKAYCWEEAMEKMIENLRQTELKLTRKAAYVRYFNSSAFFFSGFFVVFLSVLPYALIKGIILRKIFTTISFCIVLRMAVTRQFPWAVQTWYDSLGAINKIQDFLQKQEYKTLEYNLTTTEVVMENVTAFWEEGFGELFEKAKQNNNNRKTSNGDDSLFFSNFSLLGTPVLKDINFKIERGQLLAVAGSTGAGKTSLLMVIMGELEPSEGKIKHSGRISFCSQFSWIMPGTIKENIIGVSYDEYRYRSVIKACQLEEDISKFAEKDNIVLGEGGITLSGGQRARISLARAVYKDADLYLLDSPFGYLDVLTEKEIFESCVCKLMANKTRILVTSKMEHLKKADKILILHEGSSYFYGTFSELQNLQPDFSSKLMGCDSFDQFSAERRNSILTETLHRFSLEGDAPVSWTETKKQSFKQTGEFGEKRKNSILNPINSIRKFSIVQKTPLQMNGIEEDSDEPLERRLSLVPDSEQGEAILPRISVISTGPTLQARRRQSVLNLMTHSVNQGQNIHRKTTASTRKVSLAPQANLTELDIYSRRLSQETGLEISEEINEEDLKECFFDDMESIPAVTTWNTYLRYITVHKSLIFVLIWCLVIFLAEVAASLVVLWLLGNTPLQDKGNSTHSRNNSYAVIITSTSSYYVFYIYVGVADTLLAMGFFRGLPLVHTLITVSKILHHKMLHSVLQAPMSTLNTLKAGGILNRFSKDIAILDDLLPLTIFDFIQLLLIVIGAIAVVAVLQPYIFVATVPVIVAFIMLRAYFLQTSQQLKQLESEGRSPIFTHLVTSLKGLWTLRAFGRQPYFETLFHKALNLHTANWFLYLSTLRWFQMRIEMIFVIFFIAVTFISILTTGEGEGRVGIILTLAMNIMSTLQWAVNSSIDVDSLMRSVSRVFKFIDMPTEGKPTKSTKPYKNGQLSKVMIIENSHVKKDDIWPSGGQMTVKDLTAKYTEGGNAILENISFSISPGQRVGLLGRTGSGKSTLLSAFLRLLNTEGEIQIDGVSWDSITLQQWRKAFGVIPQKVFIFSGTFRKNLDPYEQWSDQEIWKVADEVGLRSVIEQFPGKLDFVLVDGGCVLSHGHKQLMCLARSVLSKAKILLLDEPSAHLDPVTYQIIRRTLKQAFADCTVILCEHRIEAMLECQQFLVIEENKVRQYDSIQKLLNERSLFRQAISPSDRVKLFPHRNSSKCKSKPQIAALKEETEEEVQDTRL

Row | Structure (SMILES) | EC30
1 | CC(C)COc1cc(F)cc(-c2ccc(C(=O)NS(=O)(=O)c3ccn[nH]3)c(N3C(C)CC(c4ccccc4)C3C)n2)c1 (stereo not drawn) [Compound 1348, 2-(2,5-dimethyl-3-phenyl-pyrrolidin-1-yl)-6-(3-fluoro-5-isobutoxy-phenyl)-N-(1H-pyrazol-5-ylsulfonyl)pyridine-3-carboxamide] | +++ (“+++” means <3 uM)
2 | CC(C)(C)c1ccc(C(=O)NS(=O)(=O)c2cccc(N)n2)c(OC2CC3CCC2C3)n1 (stereo not drawn) [Compound 1349, N-[(6-amino-2-pyridyl)sulfonyl]-6-tert-butyl-2-norbornan-2-yloxy-pyridine-3-carboxamide] | +++ (“+++” means <3 uM)
3 | Cc1ccc(-c2nc(-c3cc(F)cc(OC(C)C)c3)ccc2C(=O)NS(=O)(=O)c2nccnc2N)cc1 [Compound 1351, N-(3-aminopyrazin-2-yl)sulfonyl-6-(3-fluoro-5-isopropoxy-phenyl)-2-(p-tolyl)pyridine-3-carboxamide] | ++ (“++” means between 3 uM and 10 uM)
4 | CC1CN(c2nc(-c3ccc(OC(C)C)nc3)ccc2C(=O)NS(=O)(=O)c2ccn[nH]2)C(C)(C)C1 (stereo not drawn) [Compound 1352, 6-(6-isopropoxy-3-pyridyl)-N-(1H-pyrazol-5-ylsulfonyl)-2-(2,2,4-trimethylpyrrolidin-1-yl)pyridine-3-carboxamide] | +++ (“+++” means <3 uM)
5 | CC(C)Oc1ccc(-c2ccc(C(=O)NS(=O)(=O)c3cccc(N)n3)c(N3CCC[C@H]3C)n2)cn1 [Compound 1354, N-[(6-amino-2-pyridyl)sulfonyl]-6-(6-isopropoxy-3-pyridyl)-2-[(2R)-2-methylpyrrolidin-1-yl]pyridine-3-carboxamide] | +++ (“+++” means <3 uM)
6 | Cc1ccc(-c2nc(C(C)(C)C)ccc2C(=O)NS(=O)(=O)c2ccc(C)cn2)cc1 [Compound 1355, 6-tert-butyl-N-[(5-methyl-2-pyridyl)sulfonyl]-2-(p-tolyl)pyridine-3-carboxamide] | ++ (“++” means between 3 uM and 10 uM)
7 | CC(C)COc1cc(F)cc(-c2ccc(C(=O)NS(=O)(=O)c3ccccc3)c(N3C[C@@H](C)CC3(C)C)n2)c1 [Compound 1356, N-(benzenesulfonyl)-6-(3-fluoro-5-isobutoxy-phenyl)-2-[(4S)-2,2,4-trimethylpyrrolidin-1-yl]pyridine-3-carboxamide] | +++ (“+++” means <3 uM)
8 | Cc1cc(C)c(Oc2nc(C3CCCCC3)ccc2C(=O)NS(=O)(=O)c2ccc[nH]c2=O)c(C)c1 [Compound 1357, 6-cyclohexyl-N-[(2-oxo-1H-pyridin-3-yl)sulfonyl]-2-(2,4,6-trimethylphenoxy)pyridine-3-carboxamide] | +++ (“+++” means <3 uM)
9 | CC(C)COc1cc(F)cc(-c2ccc(C(=O)NS(=O)(=O)N3CC[C@@H](N)C3)c(N3C[C@@H](C)CC3(C)C)n2)c1 [Compound 1360, N-[(3R)-3-aminopyrrolidin-1-yl]sulfonyl-6-(3-fluoro-5-isobutoxy-phenyl)-2-[(4S)-2,2,4-trimethylpyrrolidin-1-yl]pyridine-3-carboxamide] | +++ (“+++” means <3 uM)
10 | CC(C)COc1cc(F)cc(-c2ccc(C(=O)NS(=O)(=O)c3cccc(N)n3)c(OC(C)CC3CCOCC3)n2)c1 (stereo not drawn) [Compound 1361, N-[(6-amino-2-pyridyl)sulfonyl]-6-(3-fluoro-5-isobutoxy-phenyl)-2-(1-methyl-2-tetrahydropyran-4-yl-ethoxy)pyridine-3-carboxamide] | +++ (“+++” means <3 uM)
11 | CC(C)COc1cc(F)cc(-c2ccc(C(=O)NS(=O)(=O)c3cccc(N)n3)c(N3C[C@@H](F)C[C@H]3C)n2)c1 [Compound 1362, N-[(6-amino-2-pyridyl)sulfonyl]-6-(3-fluoro-5-isobutoxy-phenyl)-2-[(2R,4S)-4-fluoro-2-methyl-pyrrolidin-1-yl]pyridine-3-carboxamide] | +++ (“+++” means <3 uM)
12 | CCOc1nc(-c2ccc(C(=O)NS(=O)(=O)c3cccc(N)n3)c(N3CC(C)CC3(C)C)n2)ccc1C (stereo not drawn) [Compound 1363, N-[(6-amino-2-pyridyl)sulfonyl]-6-(6-ethoxy-5-methyl-2-pyridyl)-2-(2,2,4-trimethylpyrrolidin-1-yl)pyridine-3-carboxamide] | +++ (“+++” means <3 uM)
13 | CC1CN(c2nc(C(C)(C)C)c(-c3ccccc3)cc2C(=O)NS(=O)(=O)c2cccc(N)n2)C(C)(C)C1 (stereo not drawn) [Compound 1364, N-[(6-amino-2-pyridyl)sulfonyl]-6-tert-butyl-5-phenyl-2-(2,2,4-trimethylpyrrolidin-1-yl)pyridine-3-carboxamide] | +++ (“+++” means <3 uM)
14 | CC(C)COc1cc(F)cc(-c2ccc(C(=O)NS(=O)(=O)c3cccc(N)n3)c(OC(C)(C)Cc3ccccc3)n2)c1 [Compound 1365, N-[(6-amino-2-pyridyl)sulfonyl]-2-(1,1-dimethyl-2-phenyl-ethoxy)-6-(3-fluoro-5-isobutoxy-phenyl)pyridine-3-carboxamide] | +++ (“+++” means <3 uM)

Results, then the compound that gave them:

Row | EC30 | Structure (SMILES)
15 | +++ (“+++” means <3 uM) | CCOc1cccc2c1CN(Cc1c(C)cc(C)cc1C)C2(C)C(=O)NS(=O)(=O)c1cccc(N)n1 (stereo not drawn) [Compound 1346, N-[(6-amino-2-pyridyl)sulfonyl]-4-ethoxy-1-methyl-2-[(2,4,6-trimethylphenyl)methyl]isoindoline-1-carboxamide]
16 | +++ (“+++” means <3 uM) | COc1ncccc1S(=O)(=O)NC(=O)c1cc2c(nc1Oc1ccc(C)cc1C)C(C)(C)CCC2 [Compound 1347, 2-(2,4-dimethylphenoxy)-N-[(2-methoxy-3-pyridyl)sulfonyl]-8,8-dimethyl-6,7-dihydro-5H-quinoline-3-carboxamide]
17 | + (“+” means greater than 10 uM) | Cc1ccc(F)c(-c2nc(C(C)(C)C)ccc2C(=O)NS(=O)(=O)c2cccc(N)c2)c1 [Compound 1350, N-(3-aminophenyl)sulfonyl-6-tert-butyl-2-(2-fluoro-5-methyl-phenyl)pyridine-3-carboxamide]
18 | + (“+” means greater than 10 uM) | Cc1cc(C)c(Oc2nc(-c3ccccn3)ccc2C(=O)NS(=O)(=O)c2cc[nH]n2)c(C)c1 [Compound 1353, N-(1H-pyrazol-3-ylsulfonyl)-6-(2-pyridyl)-2-(2,4,6-trimethylphenoxy)pyridine-3-carboxamide]
19 | +++ (“+++” means <3 uM) | Cc1cccc(C)c1Cn1nc(C(C)(C)C)cc1C(=O)NS(=O)(=O)c1cccc2cc[nH]c12 [Compound 1358, 5-tert-butyl-2-[(2,6-dimethylphenyl)methyl]-N-(1H-indol-7-ylsulfonyl)pyrazole-3-carboxamide]
20 | +++ (“+++” means <3 uM) | Cc1cc(C)c(Oc2nc(C3=CCN(C(=O)OC(C)C)CC3)ccc2C(=O)NS(=O)(=O)c2cccc(N)n2)c(C)c1 [Compound 1366, isopropyl 4-[5-[(6-amino-2-pyridyl)sulfonylcarbamoyl]-6-(2,4,6-trimethylphenoxy)-2-pyridyl]-3,6-dihydro-2H-pyridine-1-carboxylate]
21 | +++ (“+++” means <3 uM) | CCCc1ccc(S(=O)(=O)NC(=O)C2(C)c3cccc(OCC)c3CN2Cc2c(C)cc(C)cc2C)cc1N (stereo not drawn) [Compound 1367, N-(3-amino-4-propyl-phenyl)sulfonyl-4-ethoxy-1-methyl-2-[(2,4,6-trimethylphenyl)methyl]isoindoline-1-carboxamide]
